From ChEMBL document CHEMBL2157872, “Trimeric purine nucleoside phosphorylase: exploring postulated one-third-of-the-sites binding in the transition state” (Bioorg Med Chem, 2012)

What was measured:
[1] = molecular target: T1, Purine nucleoside phosphorylase (Bos taurus) (UniProt P55859)
T1 sequence (whole entry): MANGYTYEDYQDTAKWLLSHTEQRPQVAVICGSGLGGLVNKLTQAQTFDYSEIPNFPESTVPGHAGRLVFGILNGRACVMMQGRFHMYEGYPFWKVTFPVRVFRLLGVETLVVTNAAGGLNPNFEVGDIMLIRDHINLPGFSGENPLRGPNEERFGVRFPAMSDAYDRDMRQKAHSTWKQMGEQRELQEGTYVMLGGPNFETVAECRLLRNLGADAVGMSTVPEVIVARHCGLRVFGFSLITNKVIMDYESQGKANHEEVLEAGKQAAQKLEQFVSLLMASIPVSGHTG
Description: Inhibition of bovine PNP using 7-methylguanosine as substrate by spectrophotometric based coupled assay

[2] = molecular target: T2, Purine nucleoside phosphorylase (Bos taurus, UniProt P55859, F200W); test: Binding affinity to calf recombinant PNP Phe200Trp mutant expressed in Escherichia coli BL21 (DE3) by competitive binding fluorimetric analysis in presence of DFPP-DG
[3] = molecular target: T3, Purine nucleoside phosphorylase (Bos taurus, UniProt P55859); test: Binding affinity to calf recombinant PNP expressed in Escherichia coli BL21 (DE3) by fluorimetric titration analysis
T3 sequence (P55859 whole entry): T1 sequence (whole entry)

[4] = molecular target: Purine nucleoside phosphorylase (Bos taurus, UniProt P55859, F159W); test: Binding affinity to calf recombinant PNP Phe159Trp mutant expressed in Escherichia coli BL21 (DE3) by fluorimetric titration analysis
[5] = molecular target: T3, Purine nucleoside phosphorylase
[6] = molecular target: T2, Purine nucleoside phosphorylase
Description: Binding affinity to calf recombinant PNP Phe200Trp mutant expressed in Escherichia coli BL21 (DE3) by fluorimetric titration analysis

[7] = molecular target: T3, Purine nucleoside phosphorylase; test: Binding affinity to calf recombinant PNP expressed in Escherichia coli BL21 (DE3) by isothermal titration calorimetry/ fluorimetric titration analysis

T2 sequence (P55859 whole entry F200W): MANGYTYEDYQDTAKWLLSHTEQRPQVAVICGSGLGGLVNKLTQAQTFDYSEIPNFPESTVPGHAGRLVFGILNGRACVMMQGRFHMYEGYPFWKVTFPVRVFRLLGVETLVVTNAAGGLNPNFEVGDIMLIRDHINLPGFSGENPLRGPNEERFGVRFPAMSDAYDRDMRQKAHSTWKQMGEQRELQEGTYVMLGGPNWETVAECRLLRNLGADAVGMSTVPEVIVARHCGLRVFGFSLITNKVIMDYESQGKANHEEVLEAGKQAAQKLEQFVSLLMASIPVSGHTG
Chain of Purine nucleoside phosphorylase (Bos taurus, UniProt P55859, F159W) (P55859 whole entry F159W): as the sequence (P55859 whole entry F200W) above, with F159W, W200F counted along it

SMILES | Kieq [1] | Kd [5] | further results
C[C@@H](Cn1cnc2c(N)nc(N)nc21)OCP(=O)(O)O | 6 µM |  | Kd [2]: 860 nM
O=c1[nH]cnc2c([C@@H]3N[C@H](CO)[C@@H](O)[C@H]3O)c[nH]c12 [FORODESINE] |  | 0.023 nM | 
O=c1[nH]cnc2nc[nH]c12 | 2.5 µM |  | 

Second part, led by results:

Kieq [1] | Kd [5] | SMILES | further results
 | 120 nM | Nc1nc2nc[nH]c2c(=O)[nH]1 [GUANINE] | Kd [3]: 160 nM; Kd [4]: 3300 nM; Kd [6]: 160 nM
0.0068 µM |  | Nc1nc2c(CNCCC(F)(F)P(=O)(O)O)c[nH]c2c(=O)[nH]1 | Kd [7]: 3.6 nM
4 µM |  | Nc1nc2[nH]cnc2c(=O)[nH]1 | 
7.4 µM | 160 nM | Nc1nc2cc[nH]c2c(=O)[nH]1 | Kd [3]: 170 nM
